Data taken from patent US20240122180A1, “FUNGICIDAL HALOMETHYL KETONES AND HYDRATES AND THEIR MIXTURES” (FMC Corporation, priority 2020, published 2024).
Marks after values point to notes of the source that are not given here.

How the values were obtained:
[1] = tested on: Puccinia recondita f. sp. tritici (the causal agent of wheat leaf rust); assay: Test B: preventive spray on wheat seedlings, disease rating (100 = 100% control; * 50 ppm, ** 10 ppm, *** 250 ppm); type: in vivo; settings: 100 = 100% disease control; for pest or weed control at 50 ppm / pest or weed control at 10 ppm: Puccinia recondita
Method in brief: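 Wheat seedlings sprayed to run-off with compound in acetone/water (50/50) containing 250 ppm PEG400, inoculated next day with Puccinia recondita f. sp. tritici spores. Held 24 h saturated at 20° C, then 6 days at 20° C; disease control rated 0–100 relative to controls.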

[2] = tested on: Uncinula necator (the causal agent of grape powdery mildew); assay: Test C: preventive spray on grape seedlings, disease rating (100 = 100% control; * 50 ppm, ** 10 ppm, *** 250 ppm); type: in vivo; settings: 100 = 100% disease control; for pest or weed control at 250 ppm / Test C disease control rating: 250 ppm test suspension, 0 = no control
Method in brief: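 Grape seedlings sprayed to run-off with compound suspended in acetone/water (50/50) with 250 ppm PEG400, then inoculated next day with Uncinula necator spores. Kept at 20 °C for 12 days before disease rating, where 100 is full control and 0 none, relative to untreated controls.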

[3] = tested on: Zymoseptoria tritici (the causal agent of wheat leaf blotch); assay: Test D: preventive spray on wheat seedlings, disease rating (100 = 100% control; * 50 ppm, ** 10 ppm, *** 250 ppm); type: in vivo; settings: 250 ppm test suspension, 100 = 100% disease control; for pest or weed control at 250 ppm: Zymoseptoria tritici
Method in brief: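 Compounds first dissolved in acetone (3% of final volume), then suspended in 50/50 acetone/water with 250 ppm PEG400 and sprayed to run-off on wheat seedlings; Z. tritici spores inoculated next day. Incubated saturated at 24° C. 48 h, then 20° C. 17 days; disease control rated 0–100 versus controls.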

[4] = tested on: Blumeria graminis f. sp. tritici (the causal agent of wheat powdery mildew); assay: Test E: preventive spray on wheat seedlings, visual disease rating (100 = 100% control; * 50 ppm, ** 10 ppm, *** 250 ppm); type: in vivo; settings: 250 ppm test suspension, 100 = 100% disease control; for pest or weed control at 250 ppm: Blumeria graminis
Method in brief: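 Test suspension (3% acetone, acetone/water 50/50, 250 ppm PEG400) sprayed to run-off on wheat seedlings; inoculated next day with powdery mildew spore dust and kept 8 days at 20 °C. Visual rating, 100 = full and 0 = no control relative to untreated.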

[5] = tested on: Phakopsora pachyrhizi (the causal agent of Asian soybean rust); assay: Test F: Compound 32 or 64 alone and in mixtures on soybean seedlings, observed (Obsd) and Colby expected (Exp) disease control; type: in vivo; settings: for pest or weed control at 1.422 ppm: Compound 32 1.422 ppm alone; for pest or weed control at 2.276 ppm: Compound 32 2.276 ppm alone
[6] = tested on: Phakopsora pachyrhizi (the causal agent of Asian soybean rust); assay: Test A: preventive spray on soybean seedlings, visual disease rating (100 = 100% control; * 50 ppm, ** 10 ppm, *** 250 ppm); type: in vivo; settings: 100 = 100% disease control, 0 = no control
Method in brief: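 Soybean seedlings sprayed to run-off with compound suspended in acetone/water with 250 ppm PEG400 surfactant, inoculated next day with P. pachyrhizi spores. Kept 24 h saturated at 22 °C, then 8 days at 22 °C before visual rating of disease control (0-100) relative to controls.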

[7] = Phakopsora pachyrhizi, Table B-1
[8] = Phakopsora pachyrhizi, Table C-1
[9] = Phakopsora pachyrhizi, Table D-1
[10] = Phakopsora pachyrhizi, Table F-1
[11] = Phakopsora pachyrhizi, Table G-1
[12] = Phakopsora pachyrhizi, Table H-1
[13] = Phakopsora pachyrhizi, Table I-1
[14] = 10 ppm test suspension, wheat seedlings
[15] = 50 ppm test suspension, 0 = no control
[16] = Phakopsora pachyrhizi, 10 ppm test suspension
[17] = 10 ppm test suspension, 0 = no control

For CCOC(=O)c1cnn(Cc2ccc(OCC3(C(F)(F)F)OCCO3)cc2)c1 [Compound 32, ethyl 1-[[4-[[2-(trifluoromethyl)-1,3-dioxolan-2-yl]methoxy]phenyl]methyl]-1H-pyrazole-4-carboxylate], the pest or weed control at 50 ppm ([1]; 50 ppm test suspension, wheat seedlings) was 68%, the pest or weed control at 10 ppm ([2]; Erysiphe necator, 10 ppm test suspension (**), grape seedlings) was 100% and the pest or weed control at 250 ppm ([3]; wheat seedlings) was 89%. It also gave a pest or weed control at 250 ppm ([4]; wheat seedlings) of 97%, a pest or weed control at 1.422 ppm ([5]; Table E-1) of 78% and a pest or weed control at 2.276 ppm ([5]; Table E-1) of 80%. For the same compound, the pest or weed control at 1.422 ppm [5, 7] was 55%, the pest or weed control at 1.422 ppm [5, 8] was 39% and the pest or weed control at 1.422 ppm [5, 9] was 52%. For the same compound, the pest or weed control at 1.422 ppm [5, 10] was 75%, the pest or weed control at 1.422 ppm [5, 11] was 39% and the pest or weed control at 1.422 ppm [5, 12] was 69%. For the same compound, the pest or weed control at 1.422 ppm [5, 13] was 63%, the pest or weed control at 2.276 ppm [5, 7] was 64% and the pest or weed control at 2.276 ppm [5, 8] was 44%. The pest or weed control at 2.276 ppm [5, 9] was 60%, the pest or weed control at 2.276 ppm [5, 10] was 77% and the pest or weed control at 2.276 ppm [5, 11] was 61%. For the same compound, the pest or weed control at 2.276 ppm [5, 12] was 63% and the pest or weed control at 2.276 ppm [5, 13] was 71%.

O=C(NCC1CC1)c1csc(Cc2ccc(OCC3(C(F)(F)F)OCCO3)cc2)n1 [Compound 71, N-(cyclopropylmethyl)-2-[[4-[[2-(trifluoromethyl)-1,3-dioxolan-2-yl]methoxy]phenyl]-methyl]thiazole-4-carboxamide] gave a pest or weed control at 10 ppm [1, 14] of 96% and a melting point of 88 to 92 °C.

With CCO/C(=C\Oc1ccc(Cn2cc(C(=O)OCc3ccccc3)cn2)cc1)C(F)(F)F [Compound 186, phenylmethyl 1-[[4-[[(1Z)-2-ethoxy-3,3,3-trifluoro-1-propen-1-yl]oxy]phenyl]methyl]-1H-pyrazole-4-carboxylate] the pest or weed control at 10 ppm [1, 14] was 0%, the pest or weed control at 250 ppm ([3]; wheat seedlings) was 9% and the pest or weed control at 250 ppm ([4]; wheat seedlings) was 84%. It also gave a melting point of 63 to 67 °C.

In the case of CCOC(=O)c1cnn(Cc2cnn(CC(O)(O)C(F)(F)F)c2)c1 [compound 368], the pest or weed control at 50 ppm ([6]; Phakopsora pachyrhizi, 50 ppm test suspension) is reported as 0%, the pest or weed control at 50 ppm [1, 15] is reported as 0% and the pest or weed control at 250 ppm ([2]; Erysiphe necator) is reported as 33%. The pest or weed control at 250 ppm ([3]; 0 = no control) was 0%, the pest or weed control at 250 ppm ([4]; 0 = no control) was 0% and the melting point was 81 to 84 °C.

Work on OC(O)(COc1cccc(Cn2cc(Br)cn2)c1)C(F)(F)F [compound 386] yielded a pest or weed control at 10 ppm [6, 16] of 84%, a pest or weed control at 10 ppm [1, 17] of 19% and a melting point of 83.7 to 86.5 °C.

CCOC(=O)c1cnn(Cc2c(F)c(F)c(OCC3(C(F)(F)F)OCCO3)c(F)c2F)c1 [compound 392] showed a pest or weed control at 10 ppm [6, 16] of 97%, a pest or weed control at 10 ppm [1, 17] of 19% and a melting point of 59 to 62 °C.

In the case of CCNC(=O)c1cnn(Cc2ccc(O/C=C(\OCC)C(F)(F)F)cc2)c1 [compound 437], the “Test A disease control rating” value ([6]; 50 ppm test suspension) is reported as 77%, the “Test B disease control rating” value [1, 15] is reported as 0% and the “Test C disease control rating” value [2] is reported as 77*** %. For the same compound, the “Test D disease control rating” value ([3]; 0 = no control) was 78*** % and the “Test E disease control rating” value ([4]; 0 = no control) was 69*** %.

In the case of CCO/C(=C\Oc1ccc(Cn2cc(C(=O)N(CC)CC)cn2)cc1)C(F)(F)F [compound 438], the “Test A disease control rating” value ([6]; 50 ppm test suspension) is reported as 73%, the “Test B disease control rating” value [1, 15] is reported as 0% and the “Test C disease control rating” value [2] is reported as 59*** %. The “Test D disease control rating” value ([3]; 0 = no control) was 26*** % and the “Test E disease control rating” value ([4]; 0 = no control) was 98*** %.

CCOC(=O)c1cnn(CSc2ccc(O/C=C(\OCC)C(F)(F)F)cc2)c1 [compound 457] showed a pest or weed control at 10 ppm [6, 16] of 89%, a pest or weed control at 10 ppm [1, 17] of 0% and a pest or weed control at 250 ppm ([2]; Erysiphe necator) of 73%. It also gave a pest or weed control at 250 ppm ([3]; 0 = no control) of 7% and a pest or weed control at 250 ppm ([4]; 0 = no control) of 0%.

In the case of CCOC(=O)c1cnn(Cc2ccc(O/C=C(\OCC)C(F)(F)F)c(Cl)c2)c1 [compound 458], the “Test A disease control rating” value ([6]; 10 ppm test suspension) is reported as 100%, the “Test B disease control rating” value [1, 17] is reported as 0% and the “Test C disease control rating” value [2] is reported as 25*** %. For the same compound, the “Test D disease control rating” value ([3]; 0 = no control) was 41*** % and the “Test E disease control rating” value ([4]; 0 = no control) was 94*** %.

With CCOC(=O)c1cnn(Cc2c(F)c(F)c(O/C=C(\OCC)C(F)(F)F)c(F)c2F)c1 [compound 464] the “Test A disease control rating” value ([6]; 50 ppm test suspension) was 100%, the “Test B disease control rating” value [1, 15] was 0% and the “Test C disease control rating” value [2] was 73*** %. For the same compound, the “Test D disease control rating” value ([3]; 0 = no control) was 4*** % and the “Test E disease control rating” value ([4]; 0 = no control) was 99*** %.
